{"source": "patent US20040033555A1", "about": "(priority 2003, published 2004)", "key": {"[1]": {"test_system": "Erysiphe graminis f sp. hordei", "test": "Preventative control of powdery mildew on barley, % disease area by visual scoring and by photon imaging (fluorescein diacetate fluorescence)", "type": "in vivo", "details": "preventative foliar spray; for % Disease Area, Photon Imaging: FDA fluorescence; for % Disease Area, Visual Scoring: scored by eye", "protocol": "Barley plants (Hordeum vulgari, cv. Boone) are cultivated either as single or multiple plants per plant growth unit, typically in a 2.54 cm by 2.54 cm pot of soil. Plants are grown in an environmentally regulated growth chamber at 20° C. and 70% humidity. The plants are approximately 7 days old at the time of application of the plant treatment agent. Single plant units are sprayed with fungicide standards or experimental plant treatment agents to the point of run-off.\nTwenty-four hours following application of the plant treatment agent the barley plants are subsequently inoculated with spores of a fungal plant pathogen and incubated under the appropriate conditions for a period sufficient to allow the development of visible disease symptoms.\nInoculation with powdery mildew is with a spore suspension of Erysiphe graminis f. sp. hoerdei, (the causal agent of barley powdery mildew). Powdery mildew-inoculated plants are placed in a dry area for 4 hours following inoculation and are subsequently grown for an additional seven days at 20° C. and 65% humidity. Powdery mildew-infected plants are 15 days old at the time of rating of disease.\nFor the determination of the % disease area for a sample, a binary image is generated which defined the area of pixels associated with a LGM for each object in the field of view. The percent disease area is calculated by dividing the pixel number for the LGM area by the pixel number for the sample area. For the detection of a LGM endogenous to the plant substrate, an additional step of subtracting the fluorescence area from the total leaf area and then dividing by the total leaf area is required for the percent disease area calculation.\nThe effectiveness of a plant treatment agent on plants infected with a disease organism is determined by treating the test unit with a pro-LGM and detecting photon emission. Barley plants cultivated as described above are given 125 μL spray applications of a preventative treatment containing 40, 5, 1, 0.4 and 0.2 ppm flusilazole. The plant treatment agent is formulated by resuspending the appropriate amount of the dried compound in 6 μL of DMSO with shaking overnight, followed by the subsequent addition of 570 μL of a 50/50 Acetone/Water-Trem solution, yielding the desired final concentration. The Water-Trem contains 18 drops of the Trem® 014 surfactant (Henkel Corp, Amber, Pa.) per L of water. The formulated plant treatment agent is applied as a foliar spray application. In this example, a microsprayer apparatus (U.S. Patent Application No. 60/172,928) applying a fine aerosol mist from the tip of an ultrasonic nebulizer, with air assist, to a rotating electrostatically charged perpendicular plant target is employed.\nTwenty-four hours following application of the plant treatment agent the barley plants are subsequently inoculated with a suspension of powdery mildew (Erysiphe graminis f sp. hordei) spores, and incubated under the appropriate conditions for a period sufficient to allow the development of visible disease symptoms, as described above. Untreated plants are also infected at this time for the production of untreated, infected controls. Untreated, uninfected control plants are also generated in parallel.\nPlants to be rated for fungicide activity are first scored visually by eye for % disease coverage. The same samples are subsequently treated with the pro-LGM fluorescein diacetate. The FDA is formulated in a stock solution at 1 mg FDA/mL acetone. A final working solution is formulated which contains 5 μg/mL fluorescein diacetate and 0.005% Trem® 014. The FDA working solution is applied by spraying the sample using a Preval® sprayer (Precision Valve Corporation, Yonkers, N.Y.) with sufficient solution to wet all surfaces. Care must be taken not to allow access of FDA to leaves with cuts or abraded surfaces. […]"}, "Phytophthora infestans": {"test_system": "Phytophthora infestans", "type": "in vivo", "details": "preventative foliar spray, tomato; for % Disease Area, Photon Imaging: chlorophyll fluorescence; for % Disease Area, Visual Scoring: scored by eye"}, "Magnaportha grisea": {"test_system": "Magnaportha grisea", "details": "5 ppm, systemic application to media prior to seeding, Eragrostis curvula, M. grisea strain expressing a FP"}}, "note": "Read-outs that look alike come from different tables or passages of the source.", "data": [{"compound": "C[Si](Cn1cncn1)(c1ccc(F)cc1)c1ccc(F)cc1", "note": "[flusilazole]", "values": [{"measurement": "% Disease Area, Photon Imaging", "setting": "[1]; 0.2 ppm", "value": 64, "unit": "%"}, {"measurement": "% Disease Area, Visual Scoring", "setting": "[1]; 0.2 ppm", "value": 52, "unit": "%"}, {"measurement": "% Disease Area, Photon Imaging", "setting": "[1]; 0.4 ppm", "value": 27, "unit": "%"}, {"measurement": "% Disease Area, Visual Scoring", "setting": "[1]; 0.4 ppm", "value": 19, "unit": "%"}, {"measurement": "% Disease Area, Photon Imaging", "setting": "[1]; 1 ppm", "value": 24, "unit": "%"}, {"measurement": "% Disease Area, Visual Scoring", "setting": "[1]; 1 ppm", "value": 7, "unit": "%"}, {"measurement": "% Disease Area, Photon Imaging", "setting": "[1]; 5 ppm", "value": 13, "unit": "%"}, {"measurement": "% Disease Area, Visual Scoring", "setting": "[1]; 5 ppm", "value": 1, "unit": "%"}, {"measurement": "% Disease Area, Photon Imaging", "setting": "[1]; 40 ppm", "value": 0, "unit": "%"}, {"measurement": "% Disease Area, Visual Scoring", "setting": "[1]; 40 ppm", "value": 0, "unit": "%"}]}, {"compound": "COCC(=O)N(c1c(C)cccc1C)C(C)C(=O)OC", "note": "(centres unmarked) [Ridomil]", "values": [{"measurement": "% Disease Area, Photon Imaging", "setting": "Phytophthora infestans; 1 ppm", "value": 60, "unit": "%"}, {"measurement": "% Disease Area, Visual Scoring", "setting": "Phytophthora infestans; 1 ppm", "value": 53, "unit": "%"}, {"measurement": "% Disease Area, Photon Imaging", "setting": "Phytophthora infestans; 5 ppm", "value": 10, "unit": "%"}, {"measurement": "% Disease Area, Visual Scoring", "setting": "Phytophthora infestans; 5 ppm", "value": 24, "unit": "%"}, {"measurement": "% Disease Area, Photon Imaging", "setting": "Phytophthora infestans; 20 ppm", "value": 2, "unit": "%"}, {"measurement": "% Disease Area, Visual Scoring", "setting": "Phytophthora infestans; 20 ppm", "value": 3, "unit": "%"}]}, {"compound": "Cc1cccc2sc3nncn3c12", "note": "[tricyclazole]", "values": [{"measurement": "FP fluorescence relative to untreated, inoculated control", "setting": "Magnaportha grisea", "value": "reduced fluorescence"}]}]}
